Literature values, collected in patent US4756118A, “Method and apparatus for the destruction of imported fire ants of the genus Solenopsis” (priority 1986, dated 1988).

Columns and labels:
Imported Fire Ant = conditions: poison bait
[1] = relative to pyrethrum

## CC1(C)CNC(=NN=C(C=Cc2ccc(C(F)(F)F)cc2)C=Cc2ccc(C(F)(F)F)cc2)NC1 [Amdro]
Imported Fire Ant
  effectiveness in Imported Fire Ant control: very limited in its effectiveness

## ClC1(Cl)C2(Cl)C3(Cl)C4(Cl)C(Cl)(Cl)C5(Cl)C3(Cl)C1(Cl)C5(Cl)C24Cl (centres unmarked) [Mirex, dodecachloroocta-hydro-1,3,4-metheno-2H-cyclobuta(cd)pentalene]
other
  Acute Oral LD50: 306 mg/kg
Imported Fire Ant
  effectiveness in Imported Fire Ant control: most effective chemical control agent

## CC(C)=CC1C(C(=O)OCc2coc(Cc3ccccc3)c2)C1(C)C (centres unmarked) [Resmethrin, [5-(phenylmethyl)-3-furanyl]methyl 2,2-dimethyl-3-(2-methyl-1-propenyl)cyclopropanecarboxylate]
other
  Acute Oral LD50: 4,420 mg./kg.
[1]
  times more effective than pyrethrum: ~20 times
